ChEMBL document CHEMBL1201862, “PubChem BioAssay data set” (2004)
Active and inactive are the calls of the source.

Tests used:
Phospholipase A2 = Phospholipase A2 (Homo sapiens, UniProt P04054); format: functional;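 further: confirmatory dose-response counterscreen on phospholipase A2, testing hits that came from an ultra-high-throughput screen for ATG4B inhibitors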
Cysteine protease ATG4B = molecular target: T1, Cysteine protease ATG4B (Homo sapiens, UniProt Q9Y4P1); format: functional;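 further: Fluorescence-based dose-response confirmation assay measuring inhibition of ATG4B activity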
T1 sequence (Q9Y4P1 whole entry): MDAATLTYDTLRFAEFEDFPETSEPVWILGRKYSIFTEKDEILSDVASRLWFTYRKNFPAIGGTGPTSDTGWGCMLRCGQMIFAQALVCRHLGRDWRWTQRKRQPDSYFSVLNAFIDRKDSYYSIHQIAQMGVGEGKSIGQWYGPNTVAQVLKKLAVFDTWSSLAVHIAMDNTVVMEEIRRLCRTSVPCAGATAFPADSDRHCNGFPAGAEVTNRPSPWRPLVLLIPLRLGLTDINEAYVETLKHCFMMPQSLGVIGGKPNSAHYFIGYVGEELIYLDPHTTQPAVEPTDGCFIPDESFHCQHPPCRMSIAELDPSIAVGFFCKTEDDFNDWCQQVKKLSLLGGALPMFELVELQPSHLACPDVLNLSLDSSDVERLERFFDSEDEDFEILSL

[1] = molecular target: T2, Sentrin-specific protease 6 (Homo sapiens, UniProt Q9GZR1); experiment: SAR Analysis of small molecule inhibitors of Sentrin-specific protease 6 (SENP6) using a Luminescent assay. [Related pubchem assays (depositor defined):AID2582, AID2599]; format: functional
T2 sequence (Q9GZR1 whole entry): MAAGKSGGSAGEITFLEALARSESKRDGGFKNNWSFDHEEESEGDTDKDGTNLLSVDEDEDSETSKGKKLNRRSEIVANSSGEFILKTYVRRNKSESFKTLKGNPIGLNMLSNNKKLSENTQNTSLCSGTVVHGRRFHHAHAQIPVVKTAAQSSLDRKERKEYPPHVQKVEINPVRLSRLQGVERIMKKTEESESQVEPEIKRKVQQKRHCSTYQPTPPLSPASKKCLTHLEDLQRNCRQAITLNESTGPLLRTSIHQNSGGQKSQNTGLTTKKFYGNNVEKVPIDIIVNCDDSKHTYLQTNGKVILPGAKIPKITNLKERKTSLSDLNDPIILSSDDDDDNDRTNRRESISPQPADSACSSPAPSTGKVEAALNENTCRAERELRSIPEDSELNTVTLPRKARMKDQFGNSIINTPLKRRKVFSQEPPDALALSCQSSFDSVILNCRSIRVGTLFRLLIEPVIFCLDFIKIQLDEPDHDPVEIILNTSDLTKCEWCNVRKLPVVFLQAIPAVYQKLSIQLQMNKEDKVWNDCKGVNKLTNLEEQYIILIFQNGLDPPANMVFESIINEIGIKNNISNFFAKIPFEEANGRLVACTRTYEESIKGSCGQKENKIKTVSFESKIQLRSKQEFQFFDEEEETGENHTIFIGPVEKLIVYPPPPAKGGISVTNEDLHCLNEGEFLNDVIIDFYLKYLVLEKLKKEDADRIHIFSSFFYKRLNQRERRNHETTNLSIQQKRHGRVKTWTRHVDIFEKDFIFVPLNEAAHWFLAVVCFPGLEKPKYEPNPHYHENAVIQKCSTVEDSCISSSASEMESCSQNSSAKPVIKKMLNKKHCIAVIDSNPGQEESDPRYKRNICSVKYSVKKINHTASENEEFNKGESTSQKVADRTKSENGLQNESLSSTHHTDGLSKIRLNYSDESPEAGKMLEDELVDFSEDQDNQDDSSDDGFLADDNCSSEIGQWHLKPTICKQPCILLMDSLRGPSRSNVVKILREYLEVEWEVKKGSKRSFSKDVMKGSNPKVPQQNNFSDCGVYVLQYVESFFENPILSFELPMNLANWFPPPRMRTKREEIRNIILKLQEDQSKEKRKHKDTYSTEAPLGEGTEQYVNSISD

Caspase-3 = molecular target: T3, Caspase-3 (Homo sapiens, UniProt P42574); experiment: SAR Analysis of small molecule inhibitors of Sentrin-specific proteases (SENPs) using a Caspase-3 Selectivity assay. [Related pubchem assays (depositor defined):AID2540, AID2599, AID434973, AID489001]; format: functional
T3 sequence (P42574 whole entry): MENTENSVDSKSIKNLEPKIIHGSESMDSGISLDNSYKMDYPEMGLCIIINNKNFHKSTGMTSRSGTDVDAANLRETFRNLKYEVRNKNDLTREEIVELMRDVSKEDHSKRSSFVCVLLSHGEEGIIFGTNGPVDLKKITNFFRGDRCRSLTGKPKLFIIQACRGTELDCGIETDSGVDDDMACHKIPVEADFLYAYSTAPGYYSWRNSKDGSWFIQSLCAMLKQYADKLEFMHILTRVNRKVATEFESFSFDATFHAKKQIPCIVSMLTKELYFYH

[2] = molecular target: T4, Sentrin-specific protease 7 (Homo sapiens, UniProt Q9BQF6); experiment: SENP7 protease inhibitors, SAR follow-up, biochemical, luminescence (AID 504497); format: functional
T4 sequence (Q9BQF6 whole entry): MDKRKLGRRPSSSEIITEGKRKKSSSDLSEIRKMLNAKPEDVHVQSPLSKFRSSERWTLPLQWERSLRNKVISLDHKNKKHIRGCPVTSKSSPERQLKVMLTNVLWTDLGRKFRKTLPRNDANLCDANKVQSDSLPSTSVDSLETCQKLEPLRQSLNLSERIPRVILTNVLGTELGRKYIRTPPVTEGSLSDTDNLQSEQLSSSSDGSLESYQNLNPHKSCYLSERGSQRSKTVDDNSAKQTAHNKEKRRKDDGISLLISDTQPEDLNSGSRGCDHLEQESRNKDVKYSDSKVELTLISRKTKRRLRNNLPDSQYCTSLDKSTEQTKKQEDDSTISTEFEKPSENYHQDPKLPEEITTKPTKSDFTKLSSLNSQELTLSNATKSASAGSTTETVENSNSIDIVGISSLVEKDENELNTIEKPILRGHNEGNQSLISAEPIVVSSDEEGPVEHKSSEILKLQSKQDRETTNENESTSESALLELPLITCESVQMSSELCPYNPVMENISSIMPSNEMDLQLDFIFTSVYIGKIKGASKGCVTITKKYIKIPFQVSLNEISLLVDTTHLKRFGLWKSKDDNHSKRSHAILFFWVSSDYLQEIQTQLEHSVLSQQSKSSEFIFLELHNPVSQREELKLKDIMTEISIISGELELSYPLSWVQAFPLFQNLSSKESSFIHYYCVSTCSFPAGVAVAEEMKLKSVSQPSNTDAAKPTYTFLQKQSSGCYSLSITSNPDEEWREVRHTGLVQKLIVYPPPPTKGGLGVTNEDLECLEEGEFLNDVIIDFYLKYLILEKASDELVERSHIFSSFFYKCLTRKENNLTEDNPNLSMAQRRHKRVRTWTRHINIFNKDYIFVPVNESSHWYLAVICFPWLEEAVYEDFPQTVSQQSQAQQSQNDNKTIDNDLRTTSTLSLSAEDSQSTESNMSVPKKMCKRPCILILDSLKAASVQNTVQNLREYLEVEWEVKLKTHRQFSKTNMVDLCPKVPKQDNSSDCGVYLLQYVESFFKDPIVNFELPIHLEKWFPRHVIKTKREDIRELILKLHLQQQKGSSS

[3] = molecular target: T5, Sentrin-specific protease 8 (Homo sapiens, UniProt Q96LD8); experiment: SENP8 protease inhibitors, SAR follow-up, biochemical, luminescence (AID 504501); format: functional
T5 sequence (Q96LD8 whole entry): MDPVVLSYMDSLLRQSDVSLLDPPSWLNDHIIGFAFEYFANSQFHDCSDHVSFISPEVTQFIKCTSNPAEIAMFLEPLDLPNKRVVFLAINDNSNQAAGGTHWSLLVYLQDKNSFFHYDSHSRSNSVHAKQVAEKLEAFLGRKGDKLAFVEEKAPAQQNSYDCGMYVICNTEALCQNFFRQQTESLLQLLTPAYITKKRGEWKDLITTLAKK

[4] = molecular target: T6, Orexin/Hypocretin receptor type 1 (Homo sapiens, UniProt O43613); experiment: (§1) Fluorescence-based cell-based high throughput dose response assay for antagonists of the orexin 1 receptor (OX1R; HCRTR1). [Related pubchem assays (depositor defined):AID434989, AID435008, AID463079, AID485270, AID492963, AID492964, AID492965, AID493232, AID504717, AID504718]; format: functional
T6 sequence (O43613 whole entry): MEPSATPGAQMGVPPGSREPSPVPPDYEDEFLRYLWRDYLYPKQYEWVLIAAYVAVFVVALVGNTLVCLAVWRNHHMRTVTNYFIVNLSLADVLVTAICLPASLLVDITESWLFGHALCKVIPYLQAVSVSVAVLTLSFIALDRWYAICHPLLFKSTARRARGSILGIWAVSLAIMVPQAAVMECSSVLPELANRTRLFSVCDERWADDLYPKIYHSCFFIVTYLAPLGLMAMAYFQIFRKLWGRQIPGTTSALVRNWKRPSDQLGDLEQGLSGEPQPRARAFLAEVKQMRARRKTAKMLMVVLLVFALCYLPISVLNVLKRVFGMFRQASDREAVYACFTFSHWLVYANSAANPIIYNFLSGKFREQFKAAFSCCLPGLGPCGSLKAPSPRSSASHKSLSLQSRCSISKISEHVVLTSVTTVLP

CHO-K1 = experiment: (§2) Counterscreen for antagonists of the orexin 1 receptor (OX1R; HCRTR1): Homogeneous time resolved fluorescence (HTRF)-based cell-based dose response assay to identify antagonists of the parental CHO-K1 cell line. [Related pubchem assays (depositor defined):AID434989, AID435008, AID463079, AID485270, AID492963, AID492964, AID492965, AID493232, AID504699, AID504701]; format: functional; conditions: Cricetulus griseus
[5] = molecular target: T6, Orexin/Hypocretin receptor type 1; experiment: as §1, with “Homogeneous Time Resolved Fluorescence (HTRF)-based” for “Fluorescence-based”; format: functional
Orexin receptor type 2 [6] = molecular target: T7, Orexin receptor type 2 (Homo sapiens, UniProt O43614); experiment: Counterscreen assay for antagonists of the orexin 1 receptor (OX1R; HCRTR1): Homogeneous Time Resolved Fluorescence (HTRF)-based cell-based dose response assay for antagonists of the orexin 2 receptor (OX2R; HCRTR2), run by assay provider.; format: functional
T7 sequence (O43614 whole entry): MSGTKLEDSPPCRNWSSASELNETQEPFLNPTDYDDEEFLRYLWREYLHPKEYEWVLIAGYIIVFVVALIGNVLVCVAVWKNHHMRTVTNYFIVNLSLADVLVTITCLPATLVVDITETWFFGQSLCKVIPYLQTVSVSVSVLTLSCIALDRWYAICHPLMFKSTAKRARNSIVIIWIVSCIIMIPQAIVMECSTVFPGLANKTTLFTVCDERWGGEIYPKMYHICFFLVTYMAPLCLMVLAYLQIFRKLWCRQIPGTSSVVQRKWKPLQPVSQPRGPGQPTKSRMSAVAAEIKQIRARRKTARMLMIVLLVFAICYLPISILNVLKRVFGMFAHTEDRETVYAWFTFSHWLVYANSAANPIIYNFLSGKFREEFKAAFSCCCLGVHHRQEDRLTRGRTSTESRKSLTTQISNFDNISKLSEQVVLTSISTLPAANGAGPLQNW

[7] = as §2, with “Fluorescence-based” for “Homogeneous time resolved fluorescence (HTRF)-based”, “cell-based high throughput” for “cell-based”, “CHO” for “CHO-K1”; format: functional
Orexin receptor type 2 [8] = molecular target: T7, Orexin receptor type 2; experiment: Counterscreen assay for antagonists of the orexin 1 receptor (OX1R; HCRTR1): Fluorescence-based cell-based dose response assay for antagonists of the orexin 2 receptor (OX2R; HCRTR2), run by assay provider.; format: functional
[9] = Luminescence Cell-Based Dose Response HTS to Identify Inhibitors of 5'UTR Stem-Loop Driven Prion Protein mRNA Translation in H4 Neuroglioblastoma Cells. [Related pubchem assays: 1827 (Project Summary), 1813 (Primary HTS)]; format: functional
[10] = molecular target: Peroxisome proliferator-activated receptor gamma/Nuclear receptor coactivator 3 (Homo sapiens, UniProt P37231); experiment: (§3) TR-FRET dose response biochemical High Throughput Screening assay for agonists of the steroid receptor coactivator 3 (SRC-3) recruitment by the peroxisome proliferator-activated receptor gamma (PPAR gamma): non-selective agonists. [Related pubchem assays: 1301 (Confirmation screen.), 1048 (Primary screen.)]; format: functional
[11] = molecular target: Peroxisome proliferator-activated receptor gamma/Nuclear receptor coactivator 1 (Homo sapiens, UniProt P37231); experiment: as §3, with “1 (SRC-1)” for “3 (SRC-3)”, “assays (depositor defined):AID1300, AID1808, AID504735, AID631]” for “assays: 1301 (Confirmation screen.), 1048 (Primary screen.)]”; format: protein assay
Chain of Peroxisome proliferator-activated receptor gamma/Nuclear receptor coactivator 1 (P37231 whole entry): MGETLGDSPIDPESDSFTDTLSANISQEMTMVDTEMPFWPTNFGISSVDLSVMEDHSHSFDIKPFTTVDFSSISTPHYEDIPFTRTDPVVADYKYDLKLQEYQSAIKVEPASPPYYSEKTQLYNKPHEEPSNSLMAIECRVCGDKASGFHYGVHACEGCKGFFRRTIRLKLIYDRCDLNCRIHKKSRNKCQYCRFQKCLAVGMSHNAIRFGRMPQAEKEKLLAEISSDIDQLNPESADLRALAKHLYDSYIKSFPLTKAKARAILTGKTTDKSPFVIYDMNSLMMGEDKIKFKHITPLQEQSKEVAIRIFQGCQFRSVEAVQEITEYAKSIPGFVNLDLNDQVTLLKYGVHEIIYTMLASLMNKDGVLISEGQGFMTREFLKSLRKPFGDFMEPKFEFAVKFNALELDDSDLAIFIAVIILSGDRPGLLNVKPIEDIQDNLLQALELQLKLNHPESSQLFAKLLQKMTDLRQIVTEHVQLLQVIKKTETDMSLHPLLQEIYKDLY
Chain of Peroxisome proliferator-activated receptor gamma/Nuclear receptor coactivator 1 (Q15788 whole entry, further chain): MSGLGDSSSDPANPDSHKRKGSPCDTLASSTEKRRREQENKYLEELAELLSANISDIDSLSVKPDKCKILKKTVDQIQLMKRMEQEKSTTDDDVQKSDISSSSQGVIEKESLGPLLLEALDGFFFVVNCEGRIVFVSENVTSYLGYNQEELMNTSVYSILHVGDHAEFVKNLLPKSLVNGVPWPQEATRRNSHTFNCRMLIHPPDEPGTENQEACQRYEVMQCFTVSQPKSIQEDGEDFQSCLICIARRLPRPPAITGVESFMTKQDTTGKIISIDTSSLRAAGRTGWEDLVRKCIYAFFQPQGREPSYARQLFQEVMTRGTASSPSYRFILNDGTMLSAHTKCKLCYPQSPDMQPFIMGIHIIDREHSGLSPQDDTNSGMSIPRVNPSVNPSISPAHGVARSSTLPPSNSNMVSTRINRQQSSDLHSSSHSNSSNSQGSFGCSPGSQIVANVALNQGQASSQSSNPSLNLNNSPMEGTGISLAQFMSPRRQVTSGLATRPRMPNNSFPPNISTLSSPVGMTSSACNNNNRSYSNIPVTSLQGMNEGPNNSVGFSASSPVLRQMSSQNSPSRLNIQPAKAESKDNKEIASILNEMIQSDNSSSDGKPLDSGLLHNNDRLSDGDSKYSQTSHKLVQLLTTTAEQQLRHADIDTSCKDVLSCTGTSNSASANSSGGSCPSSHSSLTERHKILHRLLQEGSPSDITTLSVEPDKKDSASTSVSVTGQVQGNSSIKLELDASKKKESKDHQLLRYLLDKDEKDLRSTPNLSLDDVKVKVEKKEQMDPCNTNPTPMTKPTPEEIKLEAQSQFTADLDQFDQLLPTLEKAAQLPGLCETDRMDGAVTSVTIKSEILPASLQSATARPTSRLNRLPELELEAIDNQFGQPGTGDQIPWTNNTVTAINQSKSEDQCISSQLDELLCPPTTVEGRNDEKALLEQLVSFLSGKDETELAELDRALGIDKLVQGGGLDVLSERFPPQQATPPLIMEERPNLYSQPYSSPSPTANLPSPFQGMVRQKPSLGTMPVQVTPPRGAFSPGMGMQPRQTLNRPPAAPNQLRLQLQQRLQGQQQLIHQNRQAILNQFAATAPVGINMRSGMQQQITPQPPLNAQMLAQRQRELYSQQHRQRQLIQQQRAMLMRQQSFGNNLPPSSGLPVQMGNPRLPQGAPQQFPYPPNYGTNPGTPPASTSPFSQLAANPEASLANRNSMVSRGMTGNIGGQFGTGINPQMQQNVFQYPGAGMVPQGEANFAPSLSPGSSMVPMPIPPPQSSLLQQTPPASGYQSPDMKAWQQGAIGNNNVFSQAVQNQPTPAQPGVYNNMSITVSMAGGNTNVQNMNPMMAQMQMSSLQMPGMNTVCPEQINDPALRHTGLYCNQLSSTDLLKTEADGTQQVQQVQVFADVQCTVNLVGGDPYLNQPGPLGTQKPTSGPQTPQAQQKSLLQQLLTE

[12] = molecular target: Peroxisome proliferator-activated receptor gamma/Nuclear receptor coactivator 2 (Homo sapiens, UniProt P37231); experiment: TR-FRET dose response biochemical High Throughput Screening assay for agonists of the steroid receptor coactivator 2 (SRC-2) recruitment by the peroxisome proliferator-activated receptor gamma (PPAR gamma): non-selective agonists. [Related pubchem assays: 1297, 1032 ]; format: functional
Chain of Peroxisome proliferator-activated receptor gamma/Nuclear receptor coactivator 2 (P37231 whole entry): as the sequence (P37231 whole entry) above
Chain of Peroxisome proliferator-activated receptor gamma/Nuclear receptor coactivator 2 (Q15596 whole entry, further chain): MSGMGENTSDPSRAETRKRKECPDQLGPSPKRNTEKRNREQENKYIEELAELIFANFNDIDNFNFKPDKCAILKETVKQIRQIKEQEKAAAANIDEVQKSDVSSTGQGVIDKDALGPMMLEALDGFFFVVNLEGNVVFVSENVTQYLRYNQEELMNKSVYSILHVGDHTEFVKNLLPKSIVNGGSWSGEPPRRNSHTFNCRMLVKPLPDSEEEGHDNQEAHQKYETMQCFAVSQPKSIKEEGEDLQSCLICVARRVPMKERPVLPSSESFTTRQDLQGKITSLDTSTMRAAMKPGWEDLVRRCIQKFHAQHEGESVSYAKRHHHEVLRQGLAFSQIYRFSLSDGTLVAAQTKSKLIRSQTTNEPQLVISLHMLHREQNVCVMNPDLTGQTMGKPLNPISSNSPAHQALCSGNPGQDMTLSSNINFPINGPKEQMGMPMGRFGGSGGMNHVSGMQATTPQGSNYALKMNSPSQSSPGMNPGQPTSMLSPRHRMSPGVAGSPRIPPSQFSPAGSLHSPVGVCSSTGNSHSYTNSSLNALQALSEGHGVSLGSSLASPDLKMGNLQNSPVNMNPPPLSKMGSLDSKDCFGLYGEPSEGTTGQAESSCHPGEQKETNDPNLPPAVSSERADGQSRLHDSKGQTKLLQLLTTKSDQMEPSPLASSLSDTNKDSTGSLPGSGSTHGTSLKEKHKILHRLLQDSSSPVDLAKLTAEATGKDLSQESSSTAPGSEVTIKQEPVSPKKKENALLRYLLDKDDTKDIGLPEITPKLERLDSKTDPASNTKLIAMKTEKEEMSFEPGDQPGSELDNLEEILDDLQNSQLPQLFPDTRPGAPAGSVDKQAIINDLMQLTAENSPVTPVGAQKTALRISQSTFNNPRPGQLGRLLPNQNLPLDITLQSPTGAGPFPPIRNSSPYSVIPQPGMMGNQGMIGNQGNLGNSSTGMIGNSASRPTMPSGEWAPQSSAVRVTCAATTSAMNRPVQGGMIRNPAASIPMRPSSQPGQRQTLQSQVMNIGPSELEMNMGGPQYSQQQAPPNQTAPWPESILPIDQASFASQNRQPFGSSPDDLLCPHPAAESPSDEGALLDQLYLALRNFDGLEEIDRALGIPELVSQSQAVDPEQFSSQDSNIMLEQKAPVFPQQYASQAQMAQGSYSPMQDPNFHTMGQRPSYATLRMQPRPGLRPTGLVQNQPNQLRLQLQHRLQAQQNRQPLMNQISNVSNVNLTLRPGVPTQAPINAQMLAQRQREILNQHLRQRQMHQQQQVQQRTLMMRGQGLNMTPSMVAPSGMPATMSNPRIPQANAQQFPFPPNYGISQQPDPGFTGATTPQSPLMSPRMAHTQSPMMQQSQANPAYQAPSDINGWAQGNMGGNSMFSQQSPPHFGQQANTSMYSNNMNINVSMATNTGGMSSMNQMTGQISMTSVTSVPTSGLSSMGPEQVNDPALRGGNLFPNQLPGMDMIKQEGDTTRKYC

[13] = inhibitors of firefly luciferase expression or activity, dose response, H4 neuroglioma cells, luminescence (AID 1990); format: functional, cell-based
Vero = experiment: cells; format: functional, cell-based; conditions: Chlorocebus sabaeus
[14] = inhibitors of SNCA 5'UTR-driven reporter translation, confirmation, H4 neuroglioma cells, luminescence (AID 1988); format: functional, cell-based

Chain of Phospholipase A2 (P04054 whole entry): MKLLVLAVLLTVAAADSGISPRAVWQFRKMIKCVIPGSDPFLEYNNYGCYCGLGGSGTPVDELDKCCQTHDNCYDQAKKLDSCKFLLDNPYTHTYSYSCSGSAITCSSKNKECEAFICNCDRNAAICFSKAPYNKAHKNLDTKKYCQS

CC1CCc2sc(C(=O)N3CCC(C(N)=O)CC3)cc2C1 (configuration not stated)
IC50 (Phospholipase A2): 9.91 µM (active)
IC50 (Cysteine protease ATG4B): 13.2 µM (active)

NC(=O)c1ccc(NC(=O)c2ccc3c(c2)OCO3)cc1
IC50 [1]: > 99 µM (inactive)
IC50 (Caspase-3): 7.08 µM (active)
IC50 [2]: 12.9 µM (active)
IC50 [3]: > 99 µM (inactive)

c1ccc(CN2CCN(C3CCCSc4ccccc43)CC2)cc1 (configuration not stated)
IC50 [4]: 23.9 µM (inactive)
IC50 (CHO-K1): > 66.2 µM (inactive)
IC50 [5]: 1.59 µM (active)
IC50 (Orexin receptor type 2 [6]): > 50 µM (inactive)
IC50 [7]: > 49.8 µM (inactive)
IC50 (Orexin receptor type 2 [8]): > 88.8 µM (inactive)

Brc1ccc(-c2nc(/C=C/c3ccccc3)no2)cc1
IC50 [1]: > 99 µM (inactive)
IC50 (Caspase-3): > 99 µM (inactive)
IC50 [2]: > 99 µM (inactive)
IC50 [3]: > 99 µM (inactive)

COC(=O)c1ccccc1NC1=C/C(=N/S(=O)(=O)c2cccs2)c2ccccc2C1=O
IC50 [1]: 2.15 µM (active)
IC50 (Caspase-3): 24.5 µM (active)
IC50 [2]: 2.42 µM (active)
IC50 [3]: 4.02 µM (active)

Cc1ccccc1-c1nnc(S)n1/N=C/c1ccc(-c2ccccc2Br)o1
EC50 [9]: 13.9 µM (active)
EC50 [10]: > 79.4 µM (not active)
EC50 [11]: 29.4 µM (inactive)
EC50 [12]: 28.6 µM (not active)
EC50 [13]: 18.7 µM (active)
IC50 (Vero): 2.91 µM (active)
EC50 [14]: 11.7 µM (active)
